The values below come from patent EP2698155A1, “Pharmaceutical unit dosage form comprising 4-phenylbutyric acid” (priority 2012, dated 2014).

For this data set, the system named is adenocarcinoma of the prostate. The data set is described as follows: Treatment of human patients with prostate cancer (case reports). In kind it is in vivo. The note with it: general statement. As to the method:
Diseases that can be beneficially influenced by the present dosage form include in particular benign prostate hyperplasy, cancer, leukemias, cystic fibrosis, AIDS, kidney and liver diseases, thalassemia and urea cycle disorders. For example, the treatment of an adenocarcinoma of the prostate can be carried out by administering twice daily, e.g. in the morning and evening, a pharmaceutical tablet formulation containing 250 mg of sodium 4-phenylbutyrate. […] Treatment may be continued for several month or years until a satisfactory effect is observed or the patient is total free of the disease.
Following are descriptions of treatments and test results obtained from human patients.
Because of progressive bone pain they underwent bilateral orchiectomy in February 1996. They became free of pain until November 1998 when they again suffered bone pain mainly in their back. They were than treated orally twice daily with 250 mg of sodium phenylbutyrate retard tablets according to Example 1. Four weeks later they were free of pain. They stayed on this medication until June 2001 without any other symptoms of the prostate carcinoma. The PSA and the alkaline phosphatase were always within normal limits.
They stay now in complete unmaintained remission for 12 months.
This patient presented in March 1997 with a pathological fracture of the 8th thoracic vertebra caused by metastatic destruction. […]

`O=C([O-])CCCc1ccccc1.[Na+]` [sodium 4-phenylbutyrate]: the “therapeutic effect (pain)” value (adenocarcinoma of the prostate, tablet with 250 mg twice daily, after treatment of about one month) is “pain disappears”. For the same compound, under “over a long period of treatment”, the side effects entry is “no side effects”.
